Test results taken from article PMC4704819, “Honey Bee Allatostatins Target Galanin/Somatostatin-Like Receptors and Modulate Learning: A Conserved Function?” (PLoS ONE, 2016).
“Also recorded” adds a separate entry of the source. Where a SMILES comes first, the peptide text is derived from it. Bridges are numbered along the chain shown (N, C = ends).

Columns and labels:
[1] = tested on: mock-transfected HEK293 cells; test: Intracellular cAMP reporter assay, mock-transfected HEK293 cells (empty vector); type: cell-based, human; details: CRE-luciferase, IBMX, ASTCC Fig 5F, ASTA and ASTC data not shown
Procedure: For intracellular cAMP measurements, cells were bathed in trypsin EDTA and collected, then suspended in fresh DMEM. Transfections with pRK5-ApimeAstC-R, pRK5-ApimeAstA-R or empty pRK5 vector were carried out in 15 ml Falcon tubes. Transfection medium for HEK293 cells was prepared using the Lipofectamine LTX kit (Invitrogen) with 2.5 ml Opti-MEM® (Gibco), 12.5 μl Plus™ Reagent and 4 μg of ApimeASTC-R (or ApimeASTA-R, or empty) expression construct, and 2 μg of CRE(6x)-Luc plasmid. The luciferase ORF, downstream of six tandem repeats of a cyclic AMP responsive element (CRE), in front of a minimum collate promoter, was used as a reporter gene (this reporter plasmid has been used by others)
We followed a previousy published protocol: HEK293 cells in Dulbecco's Modified Eagles Medium nutrient mixture F12-Ham (DMEM/F12, Sigma–Aldrich) supplemented with 10% heat-inactivated fetal bovine serum (Gibco), 100 IU/ml penicillin, 100 μg/ml streptomycin (Gibco) were maintained in an incubator at 37°C with constant supply of 5% CO2, until they reached 60–80% confluence. Cells were then bathed in trypsin EDTA (Gibco) until rounded. The flask was then tapped to loosen the cells, which were subsequently washed off with 5 ml DMEM/F12. The cells were gently centrifuged at 800 rpm for 5 minutes and carefully suspended in fresh DMEM, which was divided in two for transfection with receptor constructs or empty vectors. After 5 min at room temperature, 30 μl LTX was added. After an incubation period of 30 min at room temperature, the DNA/LTX mix was added to the cells. The cells were then aliquoted (100 μl per well) into a clear bottom 96-well plate (Greiner bio-one #655090) and incubated overnight (37°C, 5% CO2).
Prior to measuring cAMP, the cell medium was removed by carefully inverting the 96-well plate on filter paper and quickly replaced with 100 μl of DMEM/F12 without phenol red (Invitrogen), but containing 200 μM 3-isobutyl-1-methylxanthine (IBMX, Sigma–Aldrich) to prevent cAMP breakdown, as well as drugs to be tested. In each experiment, some wells were used to measure basal levels of cAMP in the cells (negative control), while others were used to measure cAMP levels in cells exposed to 10 μM forskolin analogue (NKH-477, Sigma Aldrich, positive control). […] All cells were incubated at 37°C and 5% CO2 for 3–4 h to allow transcription of the reporter gene before 100 μl of freshly reconstituted Steadylite Plus™ substrate (PerkinElmer) was added to each well. The 96-well plate was then placed in the dark for 15 min before light emission resulting from luciferase enzymatic activity was recorded. Measurements lasting 0.2 s/well were taken every 55 s for 10 cycles using a FLUOstar Omega microplate reader (BMG Labtech). Results were analyzed by means of the Omega software packages and further processed by Excel and GraphPad Prism softwares. In order to facilitate comparisons across experiments, bioluminescence levels are expressed relative to those in mock-transfected cells (transfected with the vector devoid of the receptor sequence) untreated with NKH-477, which were arbitrarily set at 100.
To test this prediction, we expressed the two receptors separately in HEK293 cells together with the luciferase reporter gene, downstream of the cAMP response element, CRE, but without exogenous G proteins.

[2] = tested on: honey bees (Apis mellifera); test: Sucrose responsiveness assessment; type: in vivo; details: 1μM; for sensitivity to sucrose vs control (GLM coefficient ± standard error) / sensitivity to water vs control (GLM coefficient ± standard error): injected 1h before test; for sensitivity to sucrose vs control (GLM coefficient ± standard error): sucrose 0.1–30%, ASTA p = 0.76, ASTC p = 0.55, ASTCC p = 0.13, N = 35, 49, 29 (Fig 10A); for sensitivity to water vs control (GLM coefficient ± standard error): ASTA p = 0.44, ASTC p = 0.30, ASTCC p = 0.22, N = 35, 49, 29
Procedure: (§1) The vehicle for allatostatins was a saline solution made of PBS containing the protease blocker, 1 mM PMSF (prepared from a 30mM stock solution in 100% ethanol, final concentration of ethanol 3.3%).
(§2) The allatostatins were injected into the head haemolymph after penetrating the median ocellus, either 1 hour before olfactory conditioning or sucrose responsiveness assessment, or immediately after olfactory conditioning. All injections were performed under a binocular microscope. A micromanipulator-controlled Hamilton syringe (Nanofil, equipped with a NF33BV2 needle, WPI) was used to inject approximately 200 nl of peptide solution. To make sure that the solution was properly injected, it was pushed out of the syringe so that a drop was visible and then the drop was put in contact with the haemolymph where it was quickly absorbed thanks to the respiratory movements of the bee. Any bee with excessive bleeding was discarded.
Since sucrose was presented diluted in water, bees were given water ad libitum immediately before testing to ensure that their responses would be elicited by sucrose only. We followed a published protocol: six sucrose solutions of increasing concentration (0.1%, 0.3%, 1%, 3%, 10% and 30%) were presented in succession to the antennae, interspersed with water stimulations to avoid sensitization. For each animal, the presence or absence of a proboscis extension response to each stimulus was recorded.
(§3) Functional data (receptor-mediated calcium, cAMP signals and binding) were plotted and regression curves were fitted using the GraphPad Prism software (San Diego, CA). The learning data were analyzed with generalized linear effects modeling (GLM) for binomial data using the R package lme4 [67]. Response levels recorded in the last conditioning trial were used to assess the effect of treatment on learning. For 1-hour memory and generalization tests, effects of allatostatin treatment were compared for each odor tested. Generalized linear mixed effects modeling (GLMM) was also used to analyze responsiveness to sucrose, with concentration and treatment as fixed factors and the bee identity and solution presented (either sucrose or water) as random factors. […] All statistics were generated in R [68].

[3] = tested on: honey bees (Apis mellifera); test: Olfactory generalization test; type: in vivo; details: 1μM, injected immediately after conditioning, test 1h later, N = 66, 75, 72; for response to nonanal vs control (GLM coefficient ± standard error): ASTA p = 0.38, ASTC p = 0.41, ASTCC p = 0.30; for response to 1-hexanol vs control (GLM coefficient ± standard error): ASTA p = 0.91, ASTC p = 0.96, ASTCC p = 0.56; for response to 1-nonanol (CS) vs control (GLM coefficient ± standard error): ASTA p = 0.96, ASTC p = 0.37, ASTCC p = 0.10
Procedure: as §1, §2
Bees that learned to respond to the conditioned stimulus (CS) at the end of conditioning were submitted to a generalization test 1h later. In addition to 1-nonanol (the CS), two novel odorants (nonanal and 1-hexanol) were presented: these were selected according to their respective high and low levels of perceptual similarity with 1-nonanol. All odorants were presented without reinforcement with sucrose. The order of odorant presentations varied across individuals, and the integrity of the reflexive response to sucrose was checked at the end of the test.
as §3

## CC(C)[C@@H]1NC(=O)[C@H](C)NC(=O)[C@H](CC(N)=O)NC(=O)[C@H](Cc2ccccc2)NC(=O)[C@H](Cc2ccc(O)cc2)NC(=O)[C@@H](NC(=O)[C@H](CCCNC(=N)N)NC(=O)[C@H](Cc2c[nH]c3ccccc23)NC(=O)[C@H](Cc2ccc(O)cc2)NC(=O)[C@@H](NC(=O)[C@H](CCCNC(=N)N)NC(=O)CNC(=O)[C@H](CCCCN)NC(=O)[C@H](C)NC(=O)[C@H](CCC(N)=O)NC(=O)CN)C(C)C)CSSC[C@@H](C(=O)N[C@@H](Cc2ccccc2)C(=O)O)NC(=O)[C@H]([C@@H](C)O)NC1=O [Apime-ASTCC] (H-GQAKGRVYWRCYFNAVTCF-OH; disulfide 11-18; N-terminus assumed)
[1]
  effect on cAMP levels (bioluminescence) in mock-transfected cells, in words: dose-dependent response; also recorded: a similar response to this peptide was apparent also in mock-transfected cells
[1]; listed as ASTCC
  effect on cAMP levels (bioluminescence) in mock-transfected cells, in words: this occurred also in mock-transfected cells
[2]
  responsiveness to sucrose or water / feeding, in words: responded as well to 50% sucrose stimulations as control bees
  sensitivity to sucrose vs control (GLM coefficient ± standard error): 1.21±0.81
  sensitivity to water vs control (GLM coefficient ± standard error): 0.90±0.74
[3]
  response to nonanal vs control (GLM coefficient ± standard error): 0.37±0.36
  response to 1-hexanol vs control (GLM coefficient ± standard error): 0.20±0.34
  response to 1-nonanol (CS) vs control (GLM coefficient ± standard error): 0.71±0.44

## CC(C)[C@@H]1NC(=O)[C@H](C)NC(=O)[C@H](CC(N)=O)NC(=O)[C@H](Cc2ccccc2)NC(=O)[C@H](C)NC(=O)[C@@H](NC(=O)[C@H](CCC(N)=O)NC(=O)[C@H](CCCCN)NC(=O)[C@H](Cc2c[nH]c3ccccc23)NC(=O)[C@H](Cc2ccc(O)cc2)NC(=O)[C@@H](N)CO)CSSC[C@@H](C(=O)N[C@@H](Cc2ccccc2)C(N)=O)NC(=O)[C@H](CO)NC1=O [Apime-ASTC] (H-SYWKQCAFNAVSCF-NH2; disulfide 6-13; N-terminus assumed)
[1]
  effect on cAMP levels (bioluminescence) in mock-transfected cells, in words: No effect
[1]; listed as ASTC
  effect on cAMP levels (bioluminescence) in mock-transfected cells, in words: failed to increase intracellular cAMP levels
[2]
  responsiveness to sucrose or water / feeding, in words: responded as well to 50% sucrose stimulations as control bees
  sensitivity to sucrose vs control (GLM coefficient ± standard error): 0.41±0.68
  sensitivity to water vs control (GLM coefficient ± standard error): -0.71±0.68
[3]
  response to nonanal vs control (GLM coefficient ± standard error): 0.29±0.36
  response to 1-hexanol vs control (GLM coefficient ± standard error): 0.01±0.34
  response to 1-nonanol (CS) vs control (GLM coefficient ± standard error): 0.35±0.40
